Test results from US11541029B2, “High penetration compositions and their applications” (Techfields Pharma Co., Ltd., priority 2008, dated 2023).
Non-standard residues stand in square brackets, D forms with d. *: point of attachment. Arg(NO2) = N=C(NCCC[C@H](N)C(=O)O)N[N+](=O)[O-]; OCH2CH2CH2CH3 = CCCCO*

How the values were obtained:
[1] = tested on: rats given sterilized E. coli suspension as a pyrogen; test: Antipyretic activity of ibuprofen and its HPC (Study A); assay type: in vivo; conditions: 20 mg/kg, oral administration
[2] = tested on: carrageenin-induced swelling of rat hind paw; test: Anti-inflammatory activity, carrageenin paw swelling; assay type: in vivo, rats
[3] = tested on: GK rats (SLAC/GK, type 2 diabetes); test: Anti-diabetes (type II) activity of HPCs of NSAIAs in GK rats; assay type: in vivo; conditions: 30 mg/kg transdermally once per day, no fasting
Experimental: (§1) A HPC in the present disclosure lowered blood glucose levels in rat models (SLAC/GK, type 2 diabetes, n=7). 30 mg/kg of 8% diethylaminoethyl acetylsalicylate.HCl salt (P-1, in 25% ethanol); 4-acetamidophenyl salicylyldimethylaminobutyrate.HCl (P-6, in 25% ethanol), diethylaminoethyl 5-(2,4-difluorophenyl)acetylsalicylate.5-(2,4-difluorophenyl)acetylsalicylic acid salt (P-8, in 25% ethanol), diethylaminoethyl salicylsalicylate.HCl salt (P-9, in 25% ethanol), diethylaminoethyl salicylate.AcOH(P-10, in 25% ethanol), diethylaminoethyl 5-acetamido-acetylsalicylate.HCl(P-58, in 25% ethanol), diethylaminoethyl acetylsalicylsalicylate. HCl salt (P-59, in 25% ethanol), diethylaminoethyl acetylsalicylsalicylsalicylate. HCl salt (P-60, in 25% ethanol) were administered transdermally to the backs (6 cm^2, fur was shaved) of GK rats (SLAC/GK, 14-16 weeks old) and normal SD rats (SLAC/SD, 14-16 weeks old) once per day (at 8 am) for 6 weeks.
(§2) The blood glucose levels were measured once every 3 days at 4:30 pm (no fasting) from the third week to the sixth week as shown in Table 10a and 10b. […] Moreover, the blood glucose levels of the rats stayed at normal level (6-9 mmol/L, no fasting) after the treatment was stopped for 40 days.

normal SD rats (SLAC/SD) = test: Blood glucose in normal SD rats treated with HPCs of NSAIAs; assay type: in vivo; conditions: 30 mg/kg transdermally once per day, no fasting
Experimental: as §1, §2

SLAC/DB/DB obese mice = test: Blood glucose and blood lipid levels in DB/DB mice; assay type: in vivo; conditions: 30 mg/kg transdermally once per day
Experimental: HPCs in the present disclosure lowered blood glucose levels and blood lipid levels in mice models (SLAC/DB/DB, obese mice, n=7). 30 mg/kg of 8% diethylaminoethyl acetylsalicylate.HCl salt (P-1, in 25% ethanol); 4-acetamidophenyl salicylyldimethylaminobutyrate.HCl (P-6, in 25% ethanol), diethylaminoethyl 5-(2,4-difluorophenyl)acetylsalicylate.5-(2,4-difluorophenyl)acetylsalicylic acid salt (P-8, in 25% ethanol), diethylaminoethyl salicylsalicylate.HCl salt (P-9, in 25% ethanol), diethylaminoethyl salicylate.AcOH(P-10, in 25% ethanol), diethylaminoethyl 5-acetamido-acetylsalicylate.HCl(P-58, in 25% ethanol), diethylaminoethyl acetylsalicylsalicylate.HCl salt (P-59, in 25% ethanol), diethylaminoethyl acetylsalicylsalicylsalicylate.HCl salt (P-60, in 25% ethanol) were administered transdermally to the backs (4 cm^2,fur was shaved) of DB/DB mice(SLAC/DB/DB, 10-12 weeks old) once per day (at 8 am) for 5 weeks. The blood glucose levels were measured once per week and blood lipid levels were measured once every other week.

[4] = tested on: SLAC:NOD-IDDM, type 1 diabetes; test: Anti-diabetes (type I) activity of HPCs of NSAIAs; assay type: in vivo, mice
Text: 10% aqueous solution of diethylaminoethyl acetylsalicylate.acetylsalicylic acid salt (P-1, […]); 4-acetamidophenyl salicylyldimethylaminobutyrate. HCl (P-6), diethylaminoethyl 5-(2,4-difluorophenyl)acetylsalicylate.5-(2,4-difluorophenyl)acetylsalicylic acid salt (P-8), diethylaminoethyl salicylsalicylate.AcOH(P-9), diethylaminoethyl 5-acetamido-acetylsalicylate. HCl (P-58), diethylaminoethyl 2-(ρ-isobutylphenyl) propionate.citric acid (P-59), diethylaminoethyl acetylsalicylsalicylate. acetylsalicylsalicylsalicylic acid salt (P-60) (equal to of 20 mg/kg of NSAIAs) were administered transdermally to the shaved back (about 1.5 cm^2) of mice twice per day (at 8 am and 5 pm) for 7 weeks.
The blood glucose levels were measured once every 3 days at 4:30 pm (no fasting) from the fourth week to the seventh week as shown in Table 11.

[5] = tested on: autologous blood clots injected in femoral vein (pulmonary thrombus); test: Anti-thrombosis activity, autologous blood clots in rabbits; assay type: in vivo, Chinese White rabbits; conditions: 50 mg/kg topically to the back twice per day, 5 days
Experimental: Eighteen Chinese White rabbits weighing between 3.0 and 3.5 kg (aged 6-7 months) were selected and divided into three groups (control, P-1 and […] groups, n=6). One hour before the experiment, thrombi were made by aspirating venous blood (1 ml) into a sterilized bottle to clot. To avoid fragmentation and slow lysis, the autologous blood clots were stabilized in temperature-controlled (70° C.) distilled water for 10 min. After anesthesia, the femoral veins were exposed and distally isolated, and autologous blood clots (0.05 g/kg) were injected through an indwelling catheter (20GA), which had been placed in the femoral vein isolated earlier. 50 mg/kg of diethylaminoethyl acetylsalicylate.HCl salt (P-1, 10% in 25% ethanol) and diethylaminoethyl acetylsalicylsalicylate.HCl salt (P-59, 10% in 25% ethanol) were topically applied to the back of the rabbits twice per day. After 5 days, rabbits were euthanized with an excessive intravenous injection of sodium amobarbital (60 mg/kg). The lungs and hearts were isolated to observe whether thrombi were present in the pulmonary arteries. The lungs were immersed in 10% formalin for 24 h. Consecutive transverse sections along the obstructed pulmonary arteries were paraffin-embedded and stained with hematoxylin-eosine. […]

spinal cord injuries = test: Spinal cord injury in paralyzed rats; assay type: in vivo; conditions: 5 mg in 0.2 ml water on area of injury twice per day for 1 months, n=10
Experimental: A paralyzed rat was produced by anesthetizing with chloral hydrate first, and then hitting at its spinal cord to induce spinal cord injuries. On the next day, 20 completely paralyzed rats were divided into 2 groups. […] In group B (n=10), 5 mg of diethylaminopropyl acetylsalicylate.HCl in 0.2 ml of pure water was applied to the area of injury (˜2×3 cm^2) twice per day for 1 months. After the treatment, all rats (10/10) in group A were still completely paralyzed. While all rats (10/10) in group B could walk. 4 Rats of group B acted completely normal and the other 6 rats walked more slowly and less confidently than before their injury.

Tg2576 mouse model of AD = test: Anti-Alzheimer disease activity in Tg2576 mice; assay type: in vivo
Text: For many years, efforts have been focused on the development of inhibitors of β-amyloid (Aβ) formation and its related neurotoxic effects. To determine the effect of diethylaminopropyl acetylsalicylate. HCl on in vivo AD accumulation, we administered transdermally diethylaminopropyl acetylsalicylate. […] Three-month-old female transgenic mice overexpressing the human APP gene containing the Swedish mutation that causes familial AD (Tg2576 line) were used for testing the effects of diethylaminopropyl acetylsalicylate.HCl in vivo. 20 Tg2576 mice were divided into 2 groups. […] In group B (n=10), 50 mg/kg of diethylaminopropyl acetylsalicylate.HCl in 0.2 ml of pure water was applied to the back of mouse once per day for 2 months. Then the animals were killed and their brains were removed for analysis. For Aβ analysis, hemibrains were dounce homogenized in 70% formic acid at 150 mg tissue/ml formic acid solution. Homogenates were transferred to a chilled ultracentrifuge and were then spun at 100,000 g for 1 h at 4° C. Supernatants were collected and neutralized with formic acid neutralization buffer (1.0 M Tris base, 0.5 M NaH2PO4, and 0.05% NaN3; 1:20) for Aβ quantitation by ELISA. Aβ40 and Aβ42 were assayed by ELISA. Four individual experiments were performed. To compare across studies, the values for an individual study were normalized using the values obtained for the control animals included in each study. Values represent the mean±SE for the n number shown, after normalizing.
To determine if the transdermal administration of diethylaminopropyl acetylsalicylate.HCl has beneficial functional consequences, we tested 2 months of diethylaminopropyl acetylsalicylate.HCl (50 mg/kg) in the transgenic model for Alzheimer's disease in which mice develop learning deficits as amyloid accumulates. […] In the diethylaminopropyl acetylsalicylate.HCl (50 mg/kg) treated group, all mice performed superbly on the radial-arm water-maze test of working memory and untreated transgenic mice show memory deficits. […] This therapeutic approach can thus prevent and treat Alzheimer's dementia.

[6] = tested on: Female Sprague Dawley (SD) rats; test: Anti-obesity in Sprague Dawley rats; assay type: in vivo
Experimental: 20 Female Sprague Dawley (SD) rats (20 weeks old, 320-345 g) were divided into 2 groups. In group A, 0.2 ml of water was administered to the back of rat (n=10) twice per day for 30 days. In Group B, 10 mg/kg of H-Val-Pro-Gly-Pro-Arg(NO2)—OCH2CH2CH2CH3.HCl in 0.2 ml of water was administered transdermally to the backs of rats (n=10) twice per day for 30 days.

[7] = tested on: obese DB/DB mice (SLAC/DB/DB); test: Anti-obesity in obese mice (SLAC/DB/DB); assay type: in vivo
Experimental: 20 obese DB/DB mice (SLAC/DB/DB) mice (16 weeks old, 55-60 g) were divided into 2 groups. In group A, 0.1 ml of water was administered to the back of mouse (n=10) twice per day for 30 days. In Group B, 15 mg/kg of H-Val-Pro-Gly-Pro-Arg(NO2)—OCH2CH2CH2CH3.HCl in 0.2 ml of water was administered transdermally to the backs of rats (n=10) twice per day for 30 days.

[8] = 10 mg/kg transdermally twice per day for 30 days
[9] = 15 mg/kg transdermally twice per day for 30 days

CCN(CC)CCOC(=O)C(C)c1ccc(CC(C)C)cc1 (stereo not drawn) [HPC of ibuprofen, diethylaminoethyl 2-(ρ-isobutylphenyl) propionate] was tested, and the antipyretic effect [1] was “almost the same effect as 100 mg/kg of ibuprofen” and the “anti-inflammatory activities, times stronger than parent drug ibuprofen” value ([2]; transdermal or oral administrations) was “more than 5 times”.
CCN(CC)CCOC(=O)c1ccccc1OC(=O)c1ccccc1OC(C)=O.Cl [P-59, diethylaminoethyl acetylsalicylsalicylate. HCl salt] was tested, and the “blood glucose, Average (Week 2-5)” value [3] was 8.2 ± 2.7 mmol/L, the “blood glucose, Day 1” value [3] was 16.8 ± 3.0 mmol/L and the “blood glucose, Average (Week 2-5)” value (normal SD rats (SLAC/SD)) was 5.8 ± 1.0 mmol/L. For the same compound, the “blood glucose, Day 1” value (normal SD rats (SLAC/SD)) was 5.7 ± 1.3 mmol/L, the “Cholesterol (total), Day 1” value (SLAC/DB/DB obese mice) was 6.6 ± 0.4 mmol/L and the “Cholesterol (total), Week 5” value (SLAC/DB/DB obese mice) was 4.7 ± 0.4 mmol/L. For the same compound, the “Triglycerides, Day 1” value (SLAC/DB/DB obese mice) was 4.6 ± 0.4 mmol/L, the “Triglycerides, Week 5” value (SLAC/DB/DB obese mice) was 4.6 ± 0.5 mmol/L and the “blood glucose, Day 1” value (SLAC/DB/DB obese mice) was 14.2 ± 2.2 mmol/L. The “blood glucose, Week 5” value (SLAC/DB/DB obese mice) was 8.1 ± 2.4 mmol/L, the “blood glucose, Baseline” value ([4]; equal to 20 mg/kg of NSAIAs transdermally twice per day for 7 weeks) was 19.1 ± 3.2 mmol/L and the “blood glucose, Average” value ([4]; fourth week to seventh week, no fasting, equal to 20 mg/kg of NSAIAs transdermally twice per day) was 8.9 ± 1.7 mmol/L. The “lung tissue and vascular walls (histology)” value [5] was “both lung tissue and vascular walls were normal”.
In the case of CCN(CC)CCOC(=O)C(C)c1ccc(CC(C)C)cc1.O=C(O)CC(O)(CC(=O)O)C(=O)O (stereo not drawn) [diethylaminoethyl 2-(p-isobutylphenyl)propionate.citric acid], the “anti-inflammatory activity (rate of swelling) compared with ibuprofen” value ([2]; 20 mg/kg (2×10 mg) transdermally) is reported as “much stronger than that of 100 mg/kg of ibuprofen (oral)” and the “anti-inflammatory activity (rate of swelling) compared with ibuprofen” value ([2]; 50 mg/kg orally) is reported as “much stronger than that of 100 mg/kg of ibuprofen (oral)”.
With CCN(CC)CCCOC(=O)c1ccccc1OC(C)=O.Cl [diethylaminopropyl acetylsalicylate.HCl] the “rats that acted completely normal after the treatment” value (spinal cord injuries) was 4, the “rats that could walk after the treatment” value (spinal cord injuries) was 10/10 and the “reduction in Aβ42 concentration in the brain” value (Tg2576 mouse model of AD; 50 mg/kg transdermally once per day for 2 months) was 70%. The Aβ42 concentration (Tg2576 mouse model of AD; 50 mg/kg transdermally once per day for 2 months, ELISA) was 2.3 ± 0.3 pmol/g tissue and the “cognitive performance, radial-arm water-maze test of working memory” value (Tg2576 mouse model of AD; 50 mg/kg, 2 months) was “performed as well as nontransgenic mice”.
In the case of “H-Val-Pro-Gly-Pro-Arg(NO2)—OCH2CH2CH2CH3.HCl (H-VPGP[Arg(NO2)]-OCH2CH2CH2CH3; also: HCl salt)”, the “Food intake (per day & per rat)” value [6, 8] is reported as 17.5 ± 1.2, the “Weight (Day1)” value [6, 8] is reported as 333.5 ± 4.2 g and the “Weight (Day 30)” value [6, 8] is reported as 301.4 ± 3.7 g. The “control group heavier than the peptide treated group” value ([6]; rat, in vivo) was “about 17%”, the “Food intake (per day & per rat)” value [7, 9] was 3.9 ± 0.3 and the “Weight (Day1)” value [7, 9] was 57.1 ± 1.8 g. For the same compound, the “Weight (Day 30)” value [7, 9] was 53.4 ± 4.7 g and the “control group heavier than the peptide treated group” value ([7]; mouse, in vivo) was “about 26%”.
